# Measurements from ChEMBL document CHEMBL1144574, “Synthesis and identification of novel oxa-steroids as progesterone receptor antagonists” (Bioorg Med Chem Lett, 2007).
# Columns and labels:
# Progesterone receptor = biological target: T1, Progesterone receptor (Homo sapiens, UniProt P06401); assay: Antagonist activity at progesterone receptor in human T47D cells assessed as inhibition of progesterone-induced alkaline phosphatase activity; type: functional, cell-based
# T1 sequence (P06401 whole entry): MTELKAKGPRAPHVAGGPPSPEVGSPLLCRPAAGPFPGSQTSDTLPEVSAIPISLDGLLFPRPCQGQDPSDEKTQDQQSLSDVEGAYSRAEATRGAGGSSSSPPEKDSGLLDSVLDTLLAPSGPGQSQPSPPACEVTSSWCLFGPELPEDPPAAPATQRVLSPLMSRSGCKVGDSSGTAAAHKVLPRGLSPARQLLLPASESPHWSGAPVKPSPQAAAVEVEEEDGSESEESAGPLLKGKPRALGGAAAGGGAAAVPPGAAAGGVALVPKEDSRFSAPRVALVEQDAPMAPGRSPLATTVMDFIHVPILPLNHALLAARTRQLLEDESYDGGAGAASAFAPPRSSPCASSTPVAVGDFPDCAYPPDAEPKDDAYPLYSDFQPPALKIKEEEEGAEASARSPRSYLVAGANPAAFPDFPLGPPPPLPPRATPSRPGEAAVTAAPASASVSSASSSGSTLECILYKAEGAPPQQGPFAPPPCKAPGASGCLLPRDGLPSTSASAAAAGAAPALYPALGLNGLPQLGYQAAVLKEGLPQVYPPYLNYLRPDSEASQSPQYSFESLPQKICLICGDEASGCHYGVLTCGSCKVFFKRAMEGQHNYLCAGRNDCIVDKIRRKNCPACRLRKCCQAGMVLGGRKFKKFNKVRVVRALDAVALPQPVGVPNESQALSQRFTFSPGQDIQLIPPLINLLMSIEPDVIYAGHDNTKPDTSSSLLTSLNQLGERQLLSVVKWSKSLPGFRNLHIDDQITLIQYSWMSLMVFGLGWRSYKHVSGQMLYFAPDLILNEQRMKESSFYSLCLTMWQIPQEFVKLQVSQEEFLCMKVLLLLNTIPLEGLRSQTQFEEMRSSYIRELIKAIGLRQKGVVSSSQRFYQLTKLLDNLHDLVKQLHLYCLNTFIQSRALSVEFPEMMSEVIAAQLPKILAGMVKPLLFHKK
# Homo sapiens = species: Homo sapiens; assay: Selectivity for human progesterone receptor over human glucocorticoid receptor
# Glucocorticoid receptor = biological target: T2, Glucocorticoid receptor (Homo sapiens, UniProt P04150); assay: Antagonist activity at glucocorticoid receptor in human A549 cells assessed as inhibition of corticoid-induced GRE-linked luciferase reporter gene activity; type: functional, cell-based
# T2 sequence (P04150 whole entry): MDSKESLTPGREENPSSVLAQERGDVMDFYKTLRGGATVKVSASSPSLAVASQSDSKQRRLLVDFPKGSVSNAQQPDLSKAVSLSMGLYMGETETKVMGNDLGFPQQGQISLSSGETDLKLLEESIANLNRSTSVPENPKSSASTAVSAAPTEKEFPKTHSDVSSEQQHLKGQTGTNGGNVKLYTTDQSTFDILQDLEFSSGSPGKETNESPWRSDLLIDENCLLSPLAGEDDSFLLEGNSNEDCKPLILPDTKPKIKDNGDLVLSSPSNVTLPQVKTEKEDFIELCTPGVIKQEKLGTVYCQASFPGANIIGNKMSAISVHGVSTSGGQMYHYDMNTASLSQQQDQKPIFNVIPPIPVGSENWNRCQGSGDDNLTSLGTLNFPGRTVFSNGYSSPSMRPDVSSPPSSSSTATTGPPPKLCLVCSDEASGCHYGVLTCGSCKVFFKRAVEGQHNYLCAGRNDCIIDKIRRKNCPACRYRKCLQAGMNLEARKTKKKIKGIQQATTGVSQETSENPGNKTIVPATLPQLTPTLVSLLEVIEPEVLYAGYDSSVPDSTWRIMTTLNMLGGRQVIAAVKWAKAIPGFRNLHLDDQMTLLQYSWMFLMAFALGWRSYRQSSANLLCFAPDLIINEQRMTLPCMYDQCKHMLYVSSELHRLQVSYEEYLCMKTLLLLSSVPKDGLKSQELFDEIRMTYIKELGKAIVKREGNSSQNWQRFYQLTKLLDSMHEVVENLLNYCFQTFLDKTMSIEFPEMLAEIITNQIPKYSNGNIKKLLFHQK
Structure (SMILES),IC50 (Progesterone receptor) [nM],Ratio IC50 (Homo sapiens),IC50 (Glucocorticoid receptor) [nM]
CN(C)c1ccc([C@H]2C[C@@]3(C)[C@@H](CC[C@@]3(O)C#CC3CC3)[C@@H]3OCC4=CC(=O)CCC4=C32)cc1,9.6,4,33.4
CN(C)c1ccc([C@H]2C[C@@]3(C)[C@@H](CC[C@@]3(O)C#CC(C)(C)O)[C@@H]3OCC4=CC(=O)CCC4=C32)cc1,> 1000,–,558
CN(C)c1ccc([C@H]2C[C@@]3(C)[C@@H](CC[C@@]3(O)C#Cc3ccccc3)[C@@H]3OCC4=CC(=O)CCC4=C32)cc1,1.4,217,304
CN(C)c1ccc([C@H]2C[C@@]3(C)[C@@H](CC[C@@]3(O)C#CC(F)(F)F)[C@@H]3OCC4=CC(=O)CCC4=C32)cc1,9.3,6,55.5
CC#C[C@]1(O)CC[C@H]2[C@@H]3OCC4=CC(=O)CCC4=C3[C@@H](c3ccc(N(C)C)cc3)C[C@@]21C,7.5,12,86.5
CN(C)c1ccc([C@H]2C[C@@]3(C)[C@@H](CC[C@@]3(O)C#CC(C)(C)C)[C@@H]3OCC4=CC(=O)CCC4=C32)cc1,185,1,167
CN(C)CC#C[C@]1(O)CC[C@H]2[C@@H]3OCC4=CC(=O)CCC4=C3[C@@H](c3ccc(N(C)C)cc3)C[C@@]21C,> 1000,–,> 3000
C#C[C@]1(O)CC[C@H]2[C@@H]3OCC4=CC(=O)CCC4=C3[C@@H](c3ccc(N(C)C)cc3)C[C@@]21C,19,11,204
